Test system: HMPV clinical isolate A2 strain TN 94-49
Test: HMPV antiviral assay, Method 2 (LLC-MK2 cells with CP-100-356, ATP-Lite)
Format: cell-based
Conditions: human metapneumovirus, 168 h; hMPV A2 TN/94-49, LLC-MK2 cells with 4 μM CP-100-356, 7 days, ATP-Lite
In short: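 LLC-MK2 rhesus kidney cells (5,000/well) infected in suspension with HMPV A2 TN 94-49 at MOI 0.16, in serum-free medium with final 2 μg/mL TPCK-trypsin and 2 μM CP-100-356. Compounds tested in duplicate from 200 nM, 2.5-fold, 10 points; 7 days at 37 °C. Cell health by ATP-Lite luminescence; EC50 by four-parameter fit.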

Row | SMILES | EC50
1 | COc1nccc(-c2nc([C@@](O)(CNC(=O)c3cc(OC)c4nn(C5CC5)cc4c3)C3CC3)cc3c2OC[C@]3(C)C(N)=O)c1Cl [Example 782] | < 200 nM
2 | COc1cc(C(=O)NC[C@](O)(c2cc3c(c(-c4ccnc(C(F)(F)F)c4Cl)n2)OC[C@]3(C)C(N)=O)C(F)(F)F)cc2cn(C(F)F)nc12 [Example 790] | < 200 nM
3 | COc1cc(C(=O)NC[C@](O)(c2cc3c(c(-c4ccnc(C(F)F)c4Cl)n2)OC[C@]3(C)C(N)=O)C(F)(F)F)cc2cn(C(F)F)nc12 [Example 797] | < 200 nM
4 | COc1nccc(-c2nc([C@@](O)(CNC(=O)c3cc(OC)c4nn(C(F)F)cc4c3)C(F)(F)F)cc3c2OC[C@]3(C)C(N)=O)c1Cl [Example 798] | < 200 nM
5 | COc1cc(C(=O)NC[C@](O)(c2cc3c(c(-c4ccnc(C(F)(F)F)c4F)n2)OC[C@]3(C)C(N)=O)C2CC2)cc2cn(C(F)F)nc12 [Example 799] | < 200 nM
6 | COc1nccc(-c2nc([C@@](O)(CNC(=O)c3cc(OC)c4nn(C5CC5)cc4c3)C3CC3)cc3c2OC[C@]3(C)C(N)=O)c1F [Example 802] | < 200 nM
7 | COc1cc(C(=O)NC[C@](O)(c2cc3c(c(-c4ccnc(C(F)F)c4F)n2)OC[C@]3(C)C(N)=O)C2CC2)cc2cn(C3CC3)nc12 [Example 803] | < 200 nM
8 | COc1cc(C(=O)NC[C@](O)(c2cc3c(c(-c4ccnc(OCC(C)C)c4Cl)n2)OC[C@]3(C)C(N)=O)C2CC2)cc2cn(C3CC3)nc12 [Example 804] | > 200 nM
9 | COc1cc(C(=O)NC[C@](O)(c2cc3c(c(-c4ccnc(N5CCOCC5)c4Cl)n2)OC[C@]3(C)C(N)=O)C2CC2)cc2cn(C3CC3)nc12 [Example 805] | > 200 nM
10 | COc1cc(C(=O)NC[C@](O)(c2cc3c(c(-c4ccnc(OC(C)C)c4Cl)n2)OC[C@]3(C)C(N)=O)C2CC2)cc2cn(C3CC3)nc12 [Example 806] | > 200 nM
11 | CCc1nccc(-c2nc([C@@](O)(CNC(=O)c3cc(OC)c4nn(C5CC5)cc4c3)C3CC3)cc3c2OC[C@]3(C)C(N)=O)c1Cl [Example 807] | < 200 nM
12 | COc1cc(C(=O)NC[C@](O)(c2cc3c(c(-c4cccc(C(=O)O)c4Cl)n2)OC[C@]3(C)C(N)=O)C2CC2)cc2cn(C3CC3)nc12 [Example 808] | > 200 nM
13 | COc1cc(C(=O)NC[C@](O)(c2cc3c(c(-c4cccc(C(=O)N(C)C)c4Cl)n2)OC[C@]3(C)C(N)=O)C2CC2)cc2cn(C3CC3)nc12 [Example 809] | > 200 nM
14 | COc1cc(C(=O)NC[C@](O)(c2cc3c(c(-c4ccnc(C(C)C)c4Cl)n2)OC[C@]3(C)C(N)=O)C2CC2)cc2cn(C3CC3)nc12 [Example 810] | < 200 nM
15 | COc1cc(C(=O)NC[C@](O)(c2cc3c(c(-c4ccnc(N(C)C)c4Cl)n2)OC[C@]3(C)C(N)=O)C2CC2)cc2cn(C3CC3)nc12 [Example 811] | < 200 nM
16 | COc1cc(C(=O)NC[C@](O)(c2cc3c(c(-c4ccnc5c4OCCO5)n2)OC[C@]3(C)C(N)=O)C2CC2)cc2cn(C3CC3)nc12 [Example 812] | > 200 nM
17 | COc1nccc(-c2nc([C@@](O)(CNC(=O)c3cc(OC)c4nn(C5CC5)cc4c3)C3CC3)cc3c2OC[C@]3(C)C(N)=O)c1OC [Example 813] | > 200 nM
18 | COc1cc(C(=O)NC[C@](O)(c2cc3c(c(-c4ccnc(Cl)c4C)n2)OC[C@]3(C)C(N)=O)C2CC2)cc2cn(C3CC3)nc12 [Example 815] | < 200 nM
19 | COc1cc(C(=O)NC[C@](O)(c2cc3c(c(-c4ccnc(C)c4F)n2)OC[C@]3(C)C(N)=O)C2CC2)cc2cn(C3CC3)nc12 [Example 817] | < 200 nM
20 | COc1cc(-c2nc([C@@](O)(CNC(=O)c3cc(OC)c4nn(C5CC5)cc4c3)C(F)(F)F)cc3c2OC[C@]3(C)C(N)=O)c(F)cn1 [Example 831] | > 200 nM

Row | SMILES | EC50
21 | COc1cc(-c2nc([C@@](O)(CNC(=O)c3cc(OC)c4nn(C5CC5)cc4c3)C3CC3)cc3c2OC[C@]3(C)C(N)=O)ccn1 [Example 832] | > 200 nM
22 | COc1cccc2c1cnn2-c1nc([C@@](O)(CNC(=O)c2cc(OC)c3nn(C4CC4)cc3c2)C2CC2)cc2c1OC[C@]2(C)C(N)=O [Example 833] | > 200 nM
23 | COc1cc(-c2nc([C@@](O)(CNC(=O)c3cc(OC)c4nn(C5CC5)cc4c3)C3CC3)cc3c2OC[C@]3(C)C(N)=O)c(Cl)cn1 [Example 834] | > 200 nM
24 | COc1cc(-c2nc([C@@](O)(CNC(=O)c3cc(OC)c4nn(C5CC5)cc4c3)C(F)(F)F)cc3c2OC[C@]3(C)C(N)=O)c(Cl)cn1 [Example 835] | > 200 nM
25 | COc1cc(C(=O)NC[C@](O)(c2cc3c(c(-n4ncc5c(F)cccc54)n2)OC[C@]3(C)C(N)=O)C(F)(F)F)cc2oc(C3CC3)nc12 [Example 836] | > 200 nM
26 | COc1cc(C(=O)NC[C@](O)(c2cc3c(c(-c4ccn5nc(C)cc5c4Cl)n2)OC[C@]3(C)C(N)=O)C2CC2)cc2cn(C3CC3)nc12 [Example 837] | > 200 nM
27 | COc1cc(C(=O)NC[C@](O)(c2cc3c(c(-c4ccn5nc(C)cc5c4)n2)OC[C@]3(C)C(N)=O)C2CC2)cc2cn(C3CC3)nc12 [Example 838] | > 200 nM
28 | COc1cccc2c1ccn2-c1nc([C@@](O)(CNC(=O)c2cc(OC)c3nn(C4CC4)cc3c2)C2CC2)cc2c1OC[C@]2(C)C(N)=O [Example 839] | < 200 nM
29 | COc1cc(C(=O)NC[C@@](O)(c2cc3c(c(-n4ccc5cnccc54)n2)OC[C@]3(C)C(N)=O)C2CC2)cc2cn(C3CC3)nc12 [Example 840] | > 200 nM
30 | COc1cc(C(=O)NC[C@](O)(c2cc3c(c(-n4ccc5cnccc54)n2)OC[C@]3(C)C(N)=O)C2CC2)cc2cn(C3CC3)nc12 [Example 841] | < 200 nM
31 | COc1cc(C(=O)NC[C@](O)(c2cc3c(c(-n4ccc5ccccc54)n2)OC[C@]3(C)C(N)=O)C(F)(F)F)cc2cn(C(F)F)nc12 [Example 843] | < 200 nM
32 | COc1cc(C(=O)NC[C@](O)(c2cc3c(c(-c4cc(C(F)(F)F)ncc4F)n2)OC[C@]3(C)C(N)=O)C(F)(F)F)cc2cn(C3CC3)nc12 [Example 845] | < 200 nM
33 | COc1cc(C(=O)NC[C@](O)(c2cc3c(c(-n4ccc5c(C(F)(F)F)cccc54)n2)OC[C@]3(C)C(N)=O)C2CC2)cc2cn(C3CC3)nc12 [Example 869] | > 200 nM
34 | COc1cc(C(=O)NCC(O)(c2cc3c(c(-c4cc(C(F)(F)F)ncc4Cl)n2)OC[C@]3(C)C(N)=O)C2CC2)cc2cn(C3CC3)nc12 (stereo partly shown) [Example 870] | > 200 nM
35 | COc1cc(C(=O)NC[C@](O)(c2cc3c(c(-c4ccnc(C)c4Cl)n2)OC[C@]3(C)C(N)=O)C2CC2)cc2cn(C3CC3)nc12 [Example 871] | < 200 nM
36 | COc1nccc(-c2nc([C@](O)(CNC(=O)c3cc(OC)c4nn(C5CC5)cc4c3)c3cccc(F)c3)cc3c2OC[C@]3(C)C(N)=O)c1Cl [Example 876] | > 200 nM
37 | COc1nccc(-c2nc([C@@](O)(CNC(=O)c3cc(OC)c4nn(C5CC5)cc4c3)c3cccc(F)c3)cc3c2OC[C@]3(C)C(N)=O)c1Cl [Example 877] | < 200 nM
38 | COc1cc(C(=O)NC[C@](O)(c2cc3c(c(-c4ccnc(C)c4Cl)n2)OC[C@]3(C)C(N)=O)C(F)(F)F)cc2cn(C3CC3)nc12 [Example 883] | > 200 nM
39 | COc1nccc(-c2nc([C@@](O)(CNC(=O)c3cc(OC)n4nc(C5CC5)cc4c3)C(C)C)cc3c2OC[C@]3(C)C(N)=O)c1Cl [Example 890] | > 200 nM
40 | COc1nccc(-c2nc([C@@](O)(CNC(=O)c3cc(OC)c4nc(C5CC5)cn4c3)C(C)C)cc3c2OC[C@]3(C)C(N)=O)c1Cl [Example 891] | > 200 nM

From patent publication US20240368174A1, “Antiviral Heterocyclic Compounds” (Enanta Pharmaceuticals, Inc., priority 2023, published 2024)
